Test results taken from publication PMC7180638, “Synthesis of Pyrrolidine Monocyclic Analogues of Pochonicine and Its Stereoisomers: Pursuit of Simplified Structures and Potent β-N-Acetylhexosaminidase Inhibition” (Molecules, 2020).
Where a name gives a salt, the structure may show the parent alone. Read-outs that look alike come from different tables or passages of the source.

Key:
Format in all cases: biochemical
[1] = biological target: β-N-Acetylhexosaminidase (Jack bean); assay: β-N-Acetylhexosaminidase (Jack bean) inhibition; settings: β-N-Acetylhexosaminidase (β-GlcNAcase), read-out: IC50
Method: (§1) With rat intestinal maltase as an exception, other enzymes were purchased from Sigma-Aldrich Chemical Co. (St. Louis, MO, USA). Brush border membranes prepared from rat small intestine according to the method of Kessler et al. were assayed at pH 6.8 for rat intestinal maltase using maltose. The released D-glucose was determined colorimetrically using the Glucose CII-test Wako (Wako Pure Chemical Ind.; Osaka, Japan). Other glycosidase activities were determined using an appropriate p-nitrophenyl glycoside as substrate in a buffer solution at the optimal pH value of each enzyme. The reaction was stopped by adding 400 mM Na2CO3. The released p-nitrophenol was measured spectrometrically at 400 nm.

[2] = biological target: T1, Amyloglucosidase (A. niger) (Aspergillus niger, UniProt P69328); assay: Amyloglucosidase (A. niger) inhibition
T1 construct: purchased Sigma-Aldrich Chemical Co
T1 sequence (P69328 25-640): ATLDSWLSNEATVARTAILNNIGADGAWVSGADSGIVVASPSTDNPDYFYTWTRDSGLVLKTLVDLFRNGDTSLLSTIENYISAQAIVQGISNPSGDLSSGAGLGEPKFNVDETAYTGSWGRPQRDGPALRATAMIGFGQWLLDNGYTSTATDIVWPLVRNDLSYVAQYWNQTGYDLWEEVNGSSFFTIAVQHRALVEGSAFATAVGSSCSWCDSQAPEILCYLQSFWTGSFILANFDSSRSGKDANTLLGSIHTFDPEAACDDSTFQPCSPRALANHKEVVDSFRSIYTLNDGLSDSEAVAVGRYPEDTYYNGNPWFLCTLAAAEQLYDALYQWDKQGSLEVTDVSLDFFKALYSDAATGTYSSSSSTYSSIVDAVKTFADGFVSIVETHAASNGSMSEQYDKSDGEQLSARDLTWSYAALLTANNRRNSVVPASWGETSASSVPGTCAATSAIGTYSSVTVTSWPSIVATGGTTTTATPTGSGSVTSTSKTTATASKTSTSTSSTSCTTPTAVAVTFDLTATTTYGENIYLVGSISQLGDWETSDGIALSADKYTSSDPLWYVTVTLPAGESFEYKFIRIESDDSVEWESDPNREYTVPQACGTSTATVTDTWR
Method: as §1

[3] = biological target: T2, α,α-Trehalase (Porcine kidney) (Sus scrofa, UniProt I3LIR5); assay: α,α-Trehalase (porcine kidney) inhibition
T2 construct: purchased Sigma-Aldrich Chemical Co; host or cells: porcine kidney
T2 sequence (I3LIR5 24-583): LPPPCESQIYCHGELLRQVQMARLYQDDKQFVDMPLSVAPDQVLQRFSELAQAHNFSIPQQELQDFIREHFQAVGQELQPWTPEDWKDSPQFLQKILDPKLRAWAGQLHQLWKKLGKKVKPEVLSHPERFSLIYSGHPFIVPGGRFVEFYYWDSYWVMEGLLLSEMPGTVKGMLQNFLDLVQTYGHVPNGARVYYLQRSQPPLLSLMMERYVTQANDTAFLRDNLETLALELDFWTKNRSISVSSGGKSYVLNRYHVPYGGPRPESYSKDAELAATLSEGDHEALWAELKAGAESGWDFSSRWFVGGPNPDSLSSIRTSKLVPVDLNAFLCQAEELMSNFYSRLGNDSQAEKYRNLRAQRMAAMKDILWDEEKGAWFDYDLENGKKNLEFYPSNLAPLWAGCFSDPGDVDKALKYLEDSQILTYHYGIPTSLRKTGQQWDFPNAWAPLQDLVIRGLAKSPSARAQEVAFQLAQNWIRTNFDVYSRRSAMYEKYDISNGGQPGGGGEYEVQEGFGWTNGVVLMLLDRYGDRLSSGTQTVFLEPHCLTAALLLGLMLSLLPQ
Method: as §1

[4] = biological target: T3, α-Galactosidase (Coffee beans) (Coffea arabica, UniProt Q42656); assay: α-Galactosidase (coffee beans) inhibition
T3 construct: purchased Sigma-Aldrich Chemical Co
T3 sequence (Q42656 16-378): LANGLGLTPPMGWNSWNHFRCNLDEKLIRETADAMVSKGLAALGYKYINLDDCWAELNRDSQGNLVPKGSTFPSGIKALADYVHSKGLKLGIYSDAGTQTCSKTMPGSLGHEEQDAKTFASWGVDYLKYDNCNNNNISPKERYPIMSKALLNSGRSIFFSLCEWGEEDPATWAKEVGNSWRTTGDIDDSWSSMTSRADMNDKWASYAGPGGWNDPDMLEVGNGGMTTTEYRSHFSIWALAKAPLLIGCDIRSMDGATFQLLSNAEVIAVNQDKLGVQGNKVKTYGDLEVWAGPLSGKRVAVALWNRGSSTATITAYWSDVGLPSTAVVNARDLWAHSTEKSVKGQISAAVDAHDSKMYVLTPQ
Method: as §1

[5] = biological target: T4, β-Glucuronidase (E. coli) (Escherichia coli, UniProt P05804); assay: β-Glucuronidase (E. coli) inhibition
T4 construct: purchased Sigma-Aldrich Chemical Co
T4 sequence (P05804 whole entry): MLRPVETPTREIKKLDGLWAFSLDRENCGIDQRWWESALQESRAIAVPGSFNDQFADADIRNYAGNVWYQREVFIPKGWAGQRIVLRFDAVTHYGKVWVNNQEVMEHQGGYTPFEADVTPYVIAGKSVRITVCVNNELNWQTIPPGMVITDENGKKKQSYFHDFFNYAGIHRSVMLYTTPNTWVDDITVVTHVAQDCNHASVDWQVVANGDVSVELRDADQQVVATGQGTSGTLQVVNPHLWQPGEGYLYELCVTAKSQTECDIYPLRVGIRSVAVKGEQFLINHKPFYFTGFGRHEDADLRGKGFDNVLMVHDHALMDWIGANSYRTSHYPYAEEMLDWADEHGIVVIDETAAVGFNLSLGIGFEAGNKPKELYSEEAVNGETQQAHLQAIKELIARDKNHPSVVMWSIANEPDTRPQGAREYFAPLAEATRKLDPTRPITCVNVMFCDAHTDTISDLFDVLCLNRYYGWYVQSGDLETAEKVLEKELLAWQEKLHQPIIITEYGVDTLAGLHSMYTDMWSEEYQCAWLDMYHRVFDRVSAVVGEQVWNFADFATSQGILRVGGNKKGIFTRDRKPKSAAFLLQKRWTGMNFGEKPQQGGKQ
Method: as §1

[6] = biological target: β-N-Acetylgalactosaminidase (HL60); assay: β-N-Acetylgalactosaminidase (HL60) inhibition
Method: as §1

[7] = biological target: T5, α-L-Fucosidase (Bovine kidney) (Bos taurus, UniProt Q2KIM0); assay: α-L-Fucosidase (bovine kidney) inhibition
T5 construct: purchased Sigma-Aldrich Chemical Co; host or cells: bovine kidney
T5 sequence (Q2KIM0 23-468): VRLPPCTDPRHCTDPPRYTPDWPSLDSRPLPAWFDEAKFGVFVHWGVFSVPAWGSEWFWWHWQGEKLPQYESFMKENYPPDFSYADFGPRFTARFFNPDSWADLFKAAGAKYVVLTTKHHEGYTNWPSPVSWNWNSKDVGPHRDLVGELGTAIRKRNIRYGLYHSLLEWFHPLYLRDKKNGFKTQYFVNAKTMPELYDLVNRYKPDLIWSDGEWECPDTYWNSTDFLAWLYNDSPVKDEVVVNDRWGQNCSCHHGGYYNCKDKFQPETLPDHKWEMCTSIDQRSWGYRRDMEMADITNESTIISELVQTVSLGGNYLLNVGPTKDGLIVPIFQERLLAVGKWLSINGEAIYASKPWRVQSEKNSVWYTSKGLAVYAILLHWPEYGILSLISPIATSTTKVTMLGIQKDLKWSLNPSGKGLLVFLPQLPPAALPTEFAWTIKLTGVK
Method: as §1

[8] = biological target: T6, β-Glucuronidase (Bovine liver) (Bos taurus, UniProt A3KMY8); assay: β-Glucuronidase (bovine liver) inhibition
T6 construct: purchased Sigma-Aldrich Chemical Co; host or cells: bovine liver
T6 sequence (A3KMY8 1-652): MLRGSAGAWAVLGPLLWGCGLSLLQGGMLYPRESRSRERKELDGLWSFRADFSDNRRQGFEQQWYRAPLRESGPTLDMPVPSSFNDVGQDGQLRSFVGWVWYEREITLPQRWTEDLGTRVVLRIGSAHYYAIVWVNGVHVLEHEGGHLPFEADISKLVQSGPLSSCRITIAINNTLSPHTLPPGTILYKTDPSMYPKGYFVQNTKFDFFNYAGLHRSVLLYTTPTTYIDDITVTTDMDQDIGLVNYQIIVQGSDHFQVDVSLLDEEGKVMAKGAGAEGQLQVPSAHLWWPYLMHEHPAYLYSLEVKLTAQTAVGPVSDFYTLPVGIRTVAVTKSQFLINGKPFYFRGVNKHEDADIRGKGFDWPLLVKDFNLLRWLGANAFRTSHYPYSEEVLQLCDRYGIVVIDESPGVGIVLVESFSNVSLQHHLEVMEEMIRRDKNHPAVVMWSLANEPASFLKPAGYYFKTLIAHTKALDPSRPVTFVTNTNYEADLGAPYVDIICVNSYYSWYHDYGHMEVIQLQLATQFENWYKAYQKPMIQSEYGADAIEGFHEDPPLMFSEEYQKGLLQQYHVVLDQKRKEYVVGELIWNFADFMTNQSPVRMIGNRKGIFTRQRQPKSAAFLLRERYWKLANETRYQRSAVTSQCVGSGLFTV
Method: as §1

[9] = biological target: β-N-Acetylhexosaminidase (Bovine liver); assay: β-N-Acetylhexosaminidase (bovine liver) inhibition; settings: for IC50: β-N-Acetylhexosaminidase (β-GlcNAcase); for Inhibition % at 1000 μM: β-N-Acetylhexosaminidase
Method: as §1

[10] = biological target: α-L-Rhamnosidase (P. decumbens); assay: α-L-Rhamnosidase (P. decumbens) inhibition
Method: as §1

[11] = biological target: α-Glucosidase (Yeast) (Saccharomyces cerevisiae, UniProt P53341); assay: α-Glucosidase (yeast) inhibition
Sequence of α-Glucosidase (Yeast) (P53341 whole entry): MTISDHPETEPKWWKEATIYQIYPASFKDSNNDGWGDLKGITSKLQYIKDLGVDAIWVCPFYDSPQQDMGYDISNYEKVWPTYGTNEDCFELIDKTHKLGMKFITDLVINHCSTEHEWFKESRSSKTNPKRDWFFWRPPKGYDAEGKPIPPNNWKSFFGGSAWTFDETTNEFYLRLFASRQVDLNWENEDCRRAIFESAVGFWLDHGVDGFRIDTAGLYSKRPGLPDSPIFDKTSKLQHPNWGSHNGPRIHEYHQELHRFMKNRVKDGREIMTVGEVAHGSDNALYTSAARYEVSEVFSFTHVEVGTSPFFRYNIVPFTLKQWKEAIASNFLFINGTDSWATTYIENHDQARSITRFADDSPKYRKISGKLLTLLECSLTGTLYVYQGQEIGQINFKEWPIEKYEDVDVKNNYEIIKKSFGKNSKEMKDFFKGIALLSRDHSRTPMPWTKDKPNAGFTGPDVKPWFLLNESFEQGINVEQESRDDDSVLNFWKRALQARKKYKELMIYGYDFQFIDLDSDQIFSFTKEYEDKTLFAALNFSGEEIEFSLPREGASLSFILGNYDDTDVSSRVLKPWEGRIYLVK
Method: as §1

[12] = biological target: β-Glucosidase (Almond); assay: β-Glucosidase (almond) inhibition
Method: as §1

[13] = 1000 μM, read-out: Inhibition % at 1000 μM
[14] = read-out: Inhibition % at 1000 μM
[15] = α-Glucosidase, Yeast, read-out: IC50

Row | SMILES | IC50 [1] | inhibition at 1000 µM [2, 13] | inhibition at 1000 µM ([2]; read-out: IC50) | inhibition at 1000 µM [3, 13] | inhibition at 1000 µM ([3]; read-out: IC50) | inhibition at 1000 µM [4, 13] | inhibition at 1000 µM ([4]; read-out: IC50) | inhibition at 1000 µM [5, 13] | inhibition at 1000 µM ([5]; read-out: IC50) | IC50 ([6]; read-out: IC50) | inhibition at 1000 µM [7, 13] | inhibition at 1000 µM ([7]; read-out: IC50) | inhibition at 1000 µM [8, 13] | inhibition at 1000 µM ([8]; read-out: IC50) | IC50 [10] | Inhibition % at 1000 μM [10] | inhibition at 1000 µM [11, 14] | inhibition at 1000 µM [11, 15] | IC50 [12] | Inhibition % at 1000 μM [12] | also measured
1 | CC(=O)NC[C@H]1N[C@H](CO)[C@@H](O)[C@@H]1O [4·HCl, 1-N-acetylamino-2,5-imino-1,2,5-trideoxy-D-mannitol hydrochloride] | 0.21 µM | 40.6% | < 50% | 20.3% | < 50% | 1.1% | < 50% | 0.6% | < 50% | 9.5 µM | 1.5% | < 50% | 1.7% | < 50% | NI (No Inhibition (less than 50% at 1000 μM)) | 6.5% |  |  |  |  | IC50 ([9]; read-out: IC50): 4.7 µM; IC50 ([11]; α-Glucosidase, Yeast): 450 µM; IC50 ([12]; read-out: IC50): 170 µM
2 | CC(=O)NC[C@@H]1N[C@@H](CO)[C@H](O)[C@H]1O [A-10, 1-N-acetylamino-2,5-imino-1,2,5-trideoxy-L-mannitol hydrochloride] | 202 µM | 5.5% | < 50% | 4.3% | < 50% | 0% | < 50% | 0% | < 50% |  | 0% | < 50% | 4.6% | < 50% | NI (No Inhibition (less than 50% at 1000 μM)) | 10.1% | 0.5% | < 50% | NI (No Inhibition (less than 50% at 1000 μM)) | 16.1% | IC50 [6]: NI (No Inhibition (less than 50% at 1000 μM)); Inhibition % at 1000 μM [6]: 13.0%; IC50 ([9]; read-out: IC50): 943 µM
3 | CC(=O)NC[C@@H]1N[C@@H](CO)[C@@H](O)[C@H]1O [C-10, 1-N-acetylamino-2,5-imino-1,2,5-trideoxy-L-altritol hydrochloride] | 129 µM | 1.9% | < 50% | 0% | < 50% | 0.36% | < 50% | 0.3% | < 50% |  | 4.9% | < 50% | 0% | < 50% | NI (No Inhibition (less than 50% at 1000 μM)) | 3.6% | 0% | < 50% | NI (No Inhibition (less than 50% at 1000 μM)) | 0% | IC50 [6]: NI (No Inhibition (less than 50% at 1000 μM)); Inhibition % at 1000 μM [6]: 1.4%; IC50 [9]: NI (No Inhibition (less than 50% at 1000 μM)); Inhibition % at 1000 μM [9]: 36.3%
4 | CC(=O)NC[C@H]1N[C@H](CO)[C@H](O)[C@@H]1O [D-10, 1-N-acetylamino-2,5-imino-1,2,5-trideoxy-D-altritol hydrochloride] | 0.12 µM | 3.8% | < 50% | 0% | < 50% |  |  | 0% | < 50% | 8.8 µM | 1.7% | < 50% | 1.3% | < 50% | NI (No Inhibition (less than 50% at 1000 μM)) | 8.3% | 0% | < 50% | NI (No Inhibition (less than 50% at 1000 μM)) | 41.0% | IC50 [4]: 380 µM
5 | CC(=O)NC[C@H]1N[C@@H](CO)[C@@H](O)[C@@H]1O [E-10a, 1-N-acetylamino-2,5-imino-1,2,5-trideoxy-D-glucitol hydrochloride] | 10 µM | 4% | < 50% | 5.6% | < 50% | 0.36% | < 50% | 0% | < 50% | 490 µM | 41.7% | < 50% | 0% | < 50% | NI (No Inhibition (less than 50% at 1000 μM)) | 11.8% | 0% | < 50% | NI (No Inhibition (less than 50% at 1000 μM)) | 37.9% | IC50 ([9]; read-out: IC50): 95 µM
6 | CC(=O)NC[C@@H]1N[C@@H](CO)[C@@H](O)[C@@H]1O [E-10b, 1-N-acetylamino-2,5-imino-1,2,5-trideoxy-L-iditol hydrochloride] | 115 µM | 6.4% | < 50% | 0% | < 50% | 0% | < 50% | 0% | < 50% |  | 20.5% | < 50% | 4.3% | < 50% | NI (No Inhibition (less than 50% at 1000 μM)) | 30.8% | 0% | < 50% | NI (No Inhibition (less than 50% at 1000 μM)) | 1.2% | IC50 [6]: NI (No Inhibition (less than 50% at 1000 μM)); Inhibition % at 1000 μM [6]: 10.1%; IC50 [9]: NI (No Inhibition (less than 50% at 1000 μM)); Inhibition % at 1000 μM [9]: 38.4%
